In patent US4543256A, “(-)-10,1L Methylenedioxy-N-N-propylnoraporphine and methods employing it for inhibiting the effects of epileptic seizures and for prevention and treatment of duodenal ulcers” (Northeastern University, priority 1982, dated 1985):
“Also recorded” adds a separate entry of the source. Counter-ions that a name gives are not always drawn.

How the values were obtained:
rats [1] = experiment: Stereotyped behavior of rats (rating scale; score, onset and duration); type: in vivo, rat (male Sprague-Dawley); conditions: for Duration of Effect (stereotypy): complete when scores ≤3; for Stereotypy Score for 30 min after MDO--NPA: maximum possible 18.0, N=5
Protocol: (§1) Male Sprague-Dawley (Charles River Labs.) rats (initially 175-200 g) were housed four per cage, with free access to food and water, under controlled lighting (on 7:00 a.m. to 7:00 p.m.), constant temperature 21°-23° C. and controlled humidity (40-50%). Aporphines were administered, as described below, freshly dissolved in 1 mM citric acid mixed with 0.9% (w/v) saline (1:4, vols.); this solvent was also used as a vehicle ("placebo") control. Haloperidol was given in the same medium; 2-diethyl aminoethyl-2,2 diphenylvalerate HCl (SKF-525A) was given in saline.
Stereotyped behavior was evaluated by a trained observer according to a rating scale method reported previously (Campbell and Baldessarini, 1981a). Briefly, the ratings were as follows: 0, no stereotypy, normal locomotion; 1, discontinuous sniffing, reduced locomotion; 2, continuous sniffing, only periodic exploration; 3, continuous sniffing, mouth movements, infrequent, exploratory activity, Ratings were made each 10 min. by observation for 30 sec, typically for 60 min. (maximum score=18.0/hour).
In all experiments except those which evaluated the time-course of drug effects, rats were given an injection of vehicle and then allowed to rest for 15 min. to adapt to nonspecific arousal effects, prior to a second injection of test agent (or placebo) and immediate behavioral testing. Behavioral data were evaluated by Student's t-test and are always expressed as mean ±SEM.
Data are mean values ±SEM for N=6 rats per group given doses of each aporphine (1mg/kg/, or approximately 3 umole/kg) by orogastric intubation (P.O.), or subcutaneous (S.C.) or intraperitoneal (I.P.) injection. Stereotypy was rated for one hour as described in Methods and duration is defined as complete when scores diminished to ≤3 (out of a maximum possible score of 18).
Data are mean values ±SEM (N=4 to 8 rats per condition). […] N.D. indicates "not determined." (*) Indicates a significant difference by t-test between control and oxidase inhibitor-pretreated rats (p<0.01).
Stereotypy was rated for 60 min as described in Methods. Data are means SEM (stereotypy scores, when 18=maximum in 1 hour) for N=6 rats per group; (*) indicates p<0.0001 by t test.
Data are mean values ±SEM (N=3 to 6 rats per condition) for effects of seven aporphine compounds (R=substituents, keyed to the structure above). Full chemical names for all compounds are provided in Methods. […] Data are provided for a dose of 10 mg/kg (i.p.), although doses of 1 and 5 mg/kg were also tested.

rats [2] = experiment: Catalepsy (maintenance of abnormal posture on bar); type: in vivo, rat (male Sprague-Dawley); conditions: i.p.
Protocol: as §1
Catalepsy was assessed as described in detail elsewhere (Campbell and Baldessarini, 1981a; 1981b, Life Sciences 29 1341-46). Briefly, rats were evaluated every 10 min. by timing (stopwatch) their maintenance of an abnormal posture with forelimbs on a 1 cm-diameter steel bar parallel to, and 8 cm above the bench, so that the rat rested on its hindquarters only; 60 sec. was taken as a maximum and nearly all normal untreated rats remained on the bar for less than 5 sec. […]
In all experiments except those which evaluated the time-course of drug effects, rats were given an injection of vehicle and then allowed to rest for 15 min. to adapt to nonspecific arousal effects, prior to a second injection of test agent (or placebo) and immediate behavioral testing. […]

Adenylate cyclase = Adenylate cyclase stimulation (cAMP) in rat striatal homogenates; type: biochemical; conditions: 100 μM; control (no addition) 2.38 ± 0.14; N=4
Text: of cAMP in rat striatal homogenates; inhibition of binding of

gastric acid output = experiment: Cysteamine induced gastric acid output; type: in vivo, rat; conditions: for INITIAL OUTPUT (gastric acid): at opening of gastric fistula, control 187 ± 20; for Gastric acid output, 1 hr: control 68 ± 17; for Gastric acid output, 6 hr: control 91 ± 12; for Gastric acid output, 7 hr: control 99 ± 10; for Gastric acid output, 5 hr: control 104 ± 18; for Gastric acid output, 4 hr: control 110 ± 25; for Gastric acid output, 3 hr: control 141 ± 32; for Gastric acid output, 2 hr: control 195 ± 48; for TOTAL OUTPUT (gastric acid): control 1043 ± 102
Protocol: (A) In addition, rats of all groups were given cysteamine HCL, 15 mg. 100
g p.o. × 1, 30 min. after (the last dose of) MDO--NPA.
(B) At the opening of gastric fistula

duodenal ulcers = experiment: Cysteamine-induced duodenal ulcer in the rat; conditions: for Duodenal Ulcer Intensity (Scale: 0-3): control 1.8; for Duodenal Ulcer Incidence (Positive/Total): control 10/12
[3] = group 3: 0.1 mg/100 g × 1 day, 1 week
[4] = group 3: 0.1 mg/100 g × 1 day, 1 week, P < 0.01
[5] = group 3: 0.1 mg/100 g × 1 day, 1 week, P < 0.001
[6] = group 3: 0.1 mg/100 g × 1 day, 1 week, P < 0.09
[7] = 50 μg/100g s.c. once daily seven days
[8] = 100 μg/100g s.c. once daily seven days

## CCCN1CCc2cccc3c2[C@H]1Cc1ccc2c(c1-3)OCO2 [MDO-NPA, (-) 10, 11-methylenedioxy-N-n-propylnoraporphine-HCl]
Rats [1]; 1 mg/kg I.P., rated one hour, maximum 18, N=6, mean ±SEM
  Stereotypy Score: 16.5 ± 0.8
Rats [1]; 1 mg/kg I.P.
  Duration of Effect (stereotypy): 116 ± 12 min
Rats [1]; 1 mg/kg P.O.
  Duration of Effect (stereotypy): 112 ± 20 min
Rats [1]; 1 mg/kg S.C., rated one hour, maximum 18, N=6, mean ±SEM
  Stereotypy Score: 17.5 ± 0.4
Rats [1]; 1 mg/kg S.C.
  Duration of Effect (stereotypy): 106 ± 10 min
Rats [1]; 1 mg/kg i.p.
  Stereotypy Score for 30 min after MDO--NPA: 16.5 ± 1.2
Rats [1]; 1 mg/kg p.o.
  Stereotypy Score for 30 min after MDO--NPA: 15.5 ± 1.6
Rats [1]; MDO-NPA 0.3 mg/kg, haloperidol 0, 60 min, maximum 18, N=6
  Stereotypy Score: 11.6 ± 0.8
Rats [1]; MDO-NPA 0.3 mg/kg, haloperidol 0.3 mg/kg 30 min before, p<0.0001
  Stereotypy Score: 0.3 ± 0.2
Rats [1]; MDO-NPA 0.3 mg/kg, haloperidol 1.0 mg/kg 30 min before, p<0.0001
  Stereotypy Score: 0.3 ± 0.2
Rats [1]; MDO-NPA 1.0 mg/kg, haloperidol 0, 60 min, maximum 18, N=6
  Stereotypy Score: 16.6 ± 0.4
Rats [1]; MDO-NPA 1.0 mg/kg, haloperidol 0.3 mg/kg 30 min before, p<0.0001
  Stereotypy Score: 0.5 ± 0.2
Rats [1]; MDO-NPA 1.0 mg/kg, haloperidol 1.0 mg/kg 30 min before, p<0.0001
  Stereotypy Score: 1.2 ± 0.4
Rats [1]; SKF-525A 40 mg/kg i.p. before MDO-NPA 0.30 mg/kg i.p., p<0.01 vs control
  Stereotypy: 1.7 ± 0.6
Rats [1]; SKF-525A 40 mg/kg i.p. before MDO-NPA 1.0 mg/kg i.p., p<0.01 vs control
  Stereotypy: 0.8 ± 0.2
Rats [1]; SKF-525A 40 mg/kg i.p. before MDO-NPA 3.0 mg/kg i.p., p<0.01 vs control
  Stereotypy: 0.8 ± 0.5
Rats [1]; control (vehicle pretreated), MDO-NPA 0.30 mg/kg i.p., score over one hour
  Stereotypy: 12.8 ± 0.6
Rats [1]; control (vehicle pretreated), MDO-NPA 1.0 mg/kg i.p., score over one hour
  Stereotypy: 16.5 ± 0.1
Rats [1]; control (vehicle pretreated), MDO-NPA 3.0 mg/kg i.p., score over one hour
  Stereotypy: 16.2 ± 0.9
Rats [1]; i.p.
  dependence of duration of action on dose: consistent increase in duration of action with increased dose
Rats [1]; i.p., for MDO-NPA at doses above 1 μmole/kg
  duration of stereotyped behavioral effects vs other agents: exceeded that of NPA
Rats [2]
  dose of maximum effect, catalepsy: 0.3 µmol/kg
Rats [2]; doses similar to those which inhibited general activity
  catalepsy: strong catalepsy
Adenylate cyclase
  Adenylate cyclase stimulation (cAMP): 2.92 ± 0.32 pmol/assay
Gastric acid output; group 2: × 1 day, P < 0.001
  INITIAL OUTPUT (gastric acid): 47 ± 13 μ Eq
  Gastric acid output, 7 hr: 18 ± 6 μ Eq
  TOTAL OUTPUT (gastric acid): 288 ± 67 μ Eq
Gastric acid output; group 2: × 1 day
  Gastric acid output, 1 hr: 28 ± 18 μ Eq
  Gastric acid output, 3 hr: 81 ± 40 μ Eq
  Gastric acid output, 2 hr: 66 ± 29 μ Eq
Gastric acid output; group 2: × 1 day, P < 0.01
  Gastric acid output, 6 hr: 20 ± 11 μ Eq
  Gastric acid output, 5 hr: 10 ± 3 μ Eq
Gastric acid output; group 2: × 1 day, P < 0.09
  Gastric acid output, 4 hr: 17 ± 8 μ Eq
Gastric acid output; [3]
  INITIAL OUTPUT (gastric acid): 120 ± 36 μ Eq
  Gastric acid output, 1 hr: 29 + 10 μ Eq
Gastric acid output; [4]
  Gastric acid output, 6 hr: 18 ± 14 μ Eq
  Gastric acid output, 5 hr: 17 ± 7 μ Eq
  Gastric acid output, 4 hr: 14 ± 6 μ Eq
Gastric acid output; [5]
  Gastric acid output, 7 hr: 9 ± 4 μ Eq
  TOTAL OUTPUT (gastric acid): 306 ± 62 μ Eq
Gastric acid output; [6]
  Gastric acid output, 3 hr: 36 ± 9 μ Eq
  Gastric acid output, 2 hr: 66 + 21 μ Eq
Duodenal ulcers; [7]
  Duodenal Ulcer Intensity (Scale: 0-3): 0.8
  Duodenal Ulcer Incidence (Positive/Total): 4/6
Duodenal ulcers; [8]
  Duodenal Ulcer Intensity (Scale: 0-3): 0.5
  Duodenal Ulcer Incidence (Positive/Total): 3/6
Duodenal ulcers; administered orally
  effect on incidence and intensity of duodenal ulcers and gastric acid output, oral: reduces the incidence and intensity of duodenal ulcers and the gastric acid output
Duodenal ulcers; once daily for seven days before cysteamine-hydrochloride
  dose effective in preventing ulcers: 50 micrograms per hundred grams of body weight
Duodenal ulcers; rats given cysteamine
  effect on cysteamine-induced duodenal ulcers: significant prevention of experimental duodenal ulcers; also recorded: virtually abolished
Duodenal ulcers; single high dose
  effect of a single high dose on duodenal ulcers: active
